The record followed here is US12077503B2, “Substituted cyclic amides and their use as herbicides” (FMC CORPORATION, priority 2015, dated 2024).

Like-named read-outs stand apart in the source and are kept apart here.

Holding throughout (type): in vivo
Assay [1] deals with giant foxtail (Setaria faberii). Description: Test A postemergence. Conditions: Setaria faberi, post-emergence, 240 h, postemergence; for pest or weed control at 125 g/ha: 125 g ai/ha. A digest of the protocol:
(§1)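 Ratings of 0 (no effect) to 100 (complete control) come from visual comparison with untreated controls roughly 10 d after treatment. Test chemicals, formulated in a non-phytotoxic solvent mixture with surfactant, were applied either as a preemergence directed soil spray on seeded soil or postemergence to one- to two-leaf plants 2 to 10 cm tall.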

For assay [2], the system named is blackgrass (Alopecurus myosuroides). Kind of assay: Test A postemergence. Conditions: Alopecurus myosuroides, post-emergence, 240 h, postemergence; for pest or weed control at 125 g/ha: 125 g ai/ha. A digest of the protocol: as §1
Assay [3] has as its system ragweed (common ragweed, Ambrosia elatior). Description: Test A postemergence. Conditions: Ambrosia artemisiifolia, post-emergence, 240 h, postemergence; for pest or weed control at 125 g/ha: 125 g ai/ha. The procedure, abridged:
as §1

Assay [4] concerns Galium (catchweed bedstraw, Galium aparine). Description: Test A postemergence. The note with it: Galium, post-emergence, 240 h, postemergence; for pest or weed control at 125 g/ha: 125 g ai/ha. The procedure, abridged: as §1
The subject of assay [5] is pigweed (Amaranthus retroflexus). Kind of assay: Test A postemergence. The note with it: Amaranthus retroflexus, post-emergence, 240 h, postemergence; for pest or weed control at 125 g/ha: 125 g ai/ha. The procedure, abridged: as §1
Assay [6] deals with ryegrass, Italian (Italian ryegrass, Lolium multiflorum). Description: Test A postemergence. Conditions: Lolium multiflorum, post-emergence, 240 h, postemergence; for pest or weed control at 125 g/ha: 125 g ai/ha. A digest of the protocol:
as §1

In assay [7] the test system is wheat (Triticum aestivum). Kind of assay: Test A postemergence. Conditions: Triticum aestivum, post-emergence, 240 h, postemergence; for plant injury at 125 g/ha: 125 g ai/ha. A digest of the protocol:
as §1

The subject of the next assay is corn (Zea mays). Description: Test A postemergence. The note with it: Zea mays, post-emergence, 240 h, postemergence; for plant injury at 125 g/ha: 125 g ai/ha. A digest of the protocol: as §1
A further assay concerns Kochia (Kochia scoparia). Description: Test A postemergence. Conditions: Bassia scoparia, post-emergence, 240 h, postemergence; for pest or weed control at 125 g/ha: 125 g ai/ha. The procedure, abridged: as §1
For assay [8], the system named is barnyardgrass (Echinochloa crus-galli). Description: Test A postemergence. Conditions: Echinochloa crus-galli, post-emergence, 240 h, postemergence; for pest or weed control at 125 g/ha: 125 g ai/ha. The procedure, abridged: as §1
In another assay the test system is rice (Oryra sativa). Description: Test B flooded paddy test. The note with it: Oryza sativa, Flood, 250 g ai/ha, read-out: Rice plant response rating. The procedure, abridged:
(§2)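 Visual ratings (0 none to 100 complete control) are relative to untreated plants, taken 13–15 d after treatment in a greenhouse. Test material went straight into floodwater standing 3 cm above the soil, kept constant, on plants at the 2-leaf stage.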

The test system of assay [9] is ducksalad (Heteranthera limosa). Kind of assay: Test B flooded paddy test. The note with it: Heteranthera limosa, Flood, 250 g ai/ha, read-out: Ducksalad plant response rating. A digest of the protocol:
as §2

The subject of assay [10] is sedge, umbrella (small-flower umbrella sedge, Cyperus difformis). Kind of assay: Test B flooded paddy test. The note with it: Cyperus difformis, Flood, 250 g ai/ha, read-out: Sedge, Umbrella plant response rating. A digest of the protocol: as §2
In assay [11] the test system is barnyardgrass (Echinochloa crus-galli). Kind of assay: Test B flooded paddy test. Conditions: Echinochloa crus-galli, Flood, 250 g ai/ha, read-out: Barnyardgrass plant response rating. The procedure, abridged:
as §2

The subject of assay [12] is pigweed (Amaranthus retroflexus). Description: Test A preemergence. The note with it: Amaranthus retroflexus, pre-emergence, 240 h; for pest or weed control at 125 g/ha: 125 g ai/ha; for pest or weed control at 500 g/ha: 500 g ai/ha.
[13] abbreviates: visual injury rating after approximately 10 d, read-out: Foxtail, Giant plant response rating (0 to 100 scale, 0 no effect, 100 complete control).
[14] abbreviates: visual injury rating after approximately 10 d, read-out: Blackgrass plant response rating (0 to 100 scale, 0 no effect, 100 complete control).
The mark [15] stands for this setting: visual injury rating after approximately 10 d, read-out: Ragweed plant response rating (0 to 100 scale, 0 no effect, 100 complete control).
Where [16] appears, read: visual injury rating after approximately 10 d, read-out: Galium plant response rating (0 to 100 scale, 0 no effect, 100 complete control).
[17] abbreviates: visual injury rating after approximately 10 d, read-out: Pigweed plant response rating (0 to 100 scale, 0 no effect, 100 complete control).
The mark [18] stands for this setting: visual injury rating after approximately 10 d, read-out: Ryegrass, Italian plant response rating (0 to 100 scale, 0 no effect, 100 complete control).
Setting [19] is: visual injury rating after approximately 10 d, read-out: Wheat plant response rating (0 to 100 scale, 0 no effect, 100 complete control).
[20] abbreviates: visual injury rating after approximately 10 d, read-out: Corn plant response rating (0 to 100 scale, 0 no effect, 100 complete control).
[21] abbreviates: visual injury rating after approximately 10 d, read-out: Kochia plant response rating (0 to 100 scale, 0 no effect, 100 complete control).
Setting [22] is: visual injury rating after approximately 10 d, read-out: Barnyardgrass plant response rating (0 to 100 scale, 0 no effect, 100 complete control).
Setting [23] is: scale of 0 to 100 where 0 is no effect and 100 is complete control.
Setting [24] is: preemergence, 0 to 100 scale where 0 is no effect and 100 is complete control, read-out: Pigweed plant response rating.
Setting [25] is: Preemergence, visual injury vs untreated controls after approximately 10 d, read-out: Pigweed plant response rating (0 to 100 scale where 0 is no effect and 100 is complete control).
The mark [26] stands for this setting: 0 to 100 scale where 0 is no effect and 100 is complete control.

Consider `Cc1c(F)ccc([C@H]2CN(C)C(=O)[C@@H]2C(=O)Nc2ccccc2S(C)(=O)=O)c1F` [Compound 842], for which the pest or weed control at 125 g/ha turned out to be 90% in [1] (setting [13]); 30% in assay [2] (setting [14]); 30% in [3] (setting [15]); 50% in assay [4] (setting [16]); 30% in assay [5] (setting [17]); 20% in assay [6] (setting [18]). For the same molecule, the values for the pest or weed control at 125 g/ha (in the assay with Kochia (Kochia scoparia) (setting [21]); in assay [8] (setting [22]); in [12] (setting [24])) were 30%, 90% and 40%, respectively. The plant injury at 125 g/ha turned out to be 30% in assay [7] (setting [19]) and 20% in the assay with corn (Zea mays) (setting [20]). For the same molecule, the pest or weed control at 250 g/ha in the assay with rice (Oryra sativa) (setting [23]) is 0%; in assay [9] (setting [23]), 100%; in assay [10] (setting [23]), 0%; in [11] (setting [23]) it was 65%. Further, in assay [12] (setting [25]), the pest or weed control at 500 g/ha amounted to 70%.

`O=C1NC[C@H](c2csc(C(F)F)c2)[C@H]1C(=O)Nc1cccc(F)c1F` [Compound 1119]: the pest or weed control at 125 g/ha is 30% in [1] (visual injury on 0 to 100 scale (0 no effect, 100 complete control), approx. 10 d, read-out: Foxtail, Giant plant response rating); 50% in assay [2] (visual injury on 0 to 100 scale (0 no effect, 100 complete control), approx. 10 d, read-out: Blackgrass plant response rating); 20% in assay [3] (visual injury on 0 to 100 scale (0 no effect, 100 complete control), approx. 10 d, read-out: Ragweed plant response rating); 40% in assay [4] (visual injury on 0 to 100 scale (0 no effect, 100 complete control), approx. 10 d, read-out: Galium plant response rating); 0% in assay [5] (visual injury on 0 to 100 scale (0 no effect, 100 complete control), approx. 10 d, read-out: Pigweed plant response rating); 30% in [6] (visual injury on 0 to 100 scale (0 no effect, 100 complete control), approx. 10 d, read-out: Ryegrass, Italian plant response rating). The pest or weed control at 125 g/ha with Kochia (Kochia scoparia) (visual injury on 0 to 100 scale (0 no effect, 100 complete control), approx. 10 d, read-out: Kochia plant response rating) is 40%; in [8] (visual injury on 0 to 100 scale (0 no effect, 100 complete control), approx. 10 d, read-out: Barnyardgrass plant response rating) it was 80%; in assay [12] (preemergence, 0 to 100 scale where 0 is no effect and 100 is complete control, approx. 10 d, read-out: Pigweed plant response rating), 0%. Further, the pest or weed control at 500 g/ha in assay [1] (500 g ai/ha, 0 to 100 scale, 0 is no effect, 100 is complete control, read-out: Foxtail, Giant plant response rating) came to 70%; in assay [2] (500 g ai/ha, 0 to 100 scale, 0 is no effect, 100 is complete control, read-out: Blackgrass plant response rating), 70%; in assay [3] (500 g ai/ha, 0 to 100 scale, 0 is no effect, 100 is complete control, read-out: Ragweed plant response rating) it was 60%; in assay [4] (500 g ai/ha, 0 to 100 scale, 0 is no effect, 100 is complete control, read-out: Galium plant response rating), 50%; in assay [5] (500 g ai/ha, 0 to 100 scale, 0 is no effect, 100 is complete control, read-out: Pigweed plant response rating), 20%; in [6] (500 g ai/ha, 0 to 100 scale, 0 is no effect, 100 is complete control, read-out: Ryegrass, Italian plant response rating) it was 30%. The pest or weed control at 500 g/ha stood at 60% in the assay on Kochia (Kochia scoparia) (500 g ai/ha, 0 to 100 scale, 0 is no effect, 100 is complete control, read-out: Kochia plant response rating); 90% in assay [8] (500 g ai/ha, 0 to 100 scale, 0 is no effect, 100 is complete control, read-out: Barnyardgrass plant response rating); 30% in assay [12] (setting [24]). The plant injury at 125 g/ha in [7] (visual injury on 0 to 100 scale (0 no effect, 100 complete control), approx. 10 d, read-out: Wheat plant response rating) turned out to be 20%; in the assay on corn (Zea mays) (visual injury on 0 to 100 scale (0 no effect, 100 complete control), approx. 10 d, read-out: Corn plant response rating), 20%. The plant injury at 500 g/ha was 50% in assay [7] (500 g ai/ha, 0 to 100 scale, 0 is no effect, 100 is complete control, read-out: Wheat plant response rating) and 30% in the assay on corn (Zea mays) (500 g ai/ha, 0 to 100 scale, 0 is no effect, 100 is complete control, read-out: Corn plant response rating). Besides, the pest or weed control at 250 g/ha in the assay with rice (Oryra sativa) (setting [26]) came to 20%; in [9] (setting [26]), 100%; in [10] (setting [26]), 50%; in [11] (setting [26]) it was 60%.

Turning to `COc1cc(C(F)(F)F)ccc1[C@H]1CN(C)C(=O)[C@@H]1C(=O)Nc1ccccc1F` [Compound 858], the pest or weed control at 125 g/ha in assay [1] (setting [13]) came out at 80%; in [2] (setting [14]), 0%; in assay [3] (setting [15]) it was 0%; in [4] (setting [16]), 30%; in assay [5] (setting [17]), 20%; in assay [6] (setting [18]), 20%. For the same molecule, the pest or weed control at 125 g/ha was found to be 20% in the assay on Kochia (Kochia scoparia) (setting [21]), 80% in assay [8] (setting [22]) and 20% in assay [12] (setting [24]). Moreover, the plant injury at 125 g/ha (in [7] (setting [19]); in the assay with corn (Zea mays) (setting [20])) was 20% in each case. The pest or weed control at 250 g/ha turned out to be 0% with rice (Oryra sativa) (setting [23]), 100% in [9] (setting [23]), 0% in assay [10] (setting [23]) and 45% in assay [11] (setting [23]). Moreover, the pest or weed control at 500 g/ha in assay [12] (setting [25]) came out at 50%.
